From ChEMBL document CHEMBL1201862, “PubChem BioAssay data set” (2004)
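Results reflect a 48-hour exposure of cells in 96-well plates to compound at five concentrations. Abbreviation: GI50, concentration required for 50% inhibition of growth.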 Calls of active or inactive are those of the source. Cut-off read from the data, not from the text of the source: active = GI50 up to about 1.1 µM and inactive = higher.

Assays:
Assay in all cases: inhibition of tumour cell growth, NCI panel, 48 h
A549 = test system: A549
HCT-116 = test system: HCT-116
HCT-15 = test system: HCT-15
HT-29 = test system: HT-29
K562 = test system: K562
MOLT-4 = test system: MOLT-4
NCI-H522 = test system: NCI-H522
OVCAR-3 = test system: OVCAR-3
OVCAR-4 = test system: OVCAR-4
OVCAR-5 = test system: OVCAR-5
OVCAR-8 = test system: OVCAR-8
RPMI-8226 = test system: RPMI-8226
SF-295 = test system: SF-295
SF-539 = test system: SF-539
SNB-75 = test system: SNB-75
SK-MEL-28 = test system: SK-MEL-28
DU-145 = test system: DU-145
MDA-MB-435 = test system: MDA-MB-435
NCI/ADR-RES = test system: NCI/ADR-RES
PC-3 = test system: PC-3

| SMILES | GI50 (A549) | GI50 (HCT-116) | GI50 (HCT-15) [µM] | GI50 (HT-29) | GI50 (K562) | GI50 (MOLT-4) | GI50 (NCI-H522) | GI50 (OVCAR-3) | GI50 (OVCAR-4) | GI50 (OVCAR-5) | GI50 (OVCAR-8) | GI50 (RPMI-8226) | GI50 (SF-295) | GI50 (SF-539) | GI50 (SNB-75) | GI50 (SK-MEL-28) | GI50 (DU-145) | GI50 (MDA-MB-435) | GI50 (NCI/ADR-RES) | GI50 (PC-3) |
| --- | --- | --- | --- | --- | --- | --- | --- | --- | --- | --- | --- | --- | --- | --- | --- | --- | --- | --- | --- | --- |
| CCN(CC)c1ccc(/N=N/c2ccc(-c3nc4ccc[n+](C)c4o3)cc2)cc1 | 9.77 µM (inactive) | 4.18 µM (inactive) | 10.3 | 11.3 µM (inactive) | 2.4 µM (inactive) | 3.66 µM (inactive) | 4.93 µM (inactive) | 10 µM (inactive) | 12 µM (inactive) | 3.54 µM (inactive) | 5.11 µM (inactive) | 2.75 µM (inactive) | 14.8 µM (inactive) | 5.46 µM (inactive) | 11.6 µM (inactive) |  |  |  |  |  |
| O=[N+]([O-])c1ccc(Cl)c(C2CC(c3cccc4ccccc34)=Nc3ccccc3S2)c1 (configuration not stated) | 28.7 µM (inactive) | 6.68 µM (inactive) | 15.2 | 17.3 µM (inactive) | 6.31 µM (inactive) | 6.75 µM (inactive) | 14.3 µM (inactive) | 16.3 µM (inactive) | 20.1 µM (inactive) | 42.1 µM (inactive) | 12.9 µM (inactive) | 2.6 µM (inactive) | 23.9 µM (inactive) | 20.6 µM (inactive) | 0.195 µM (active) | 27.3 µM (inactive) |  |  |  |  |
| O=c1c2cc(Cl)ccc2sc2cccc(Cl)c12 | > 100 µM (inactive) | > 100 µM (inactive) | > 100 | > 100 µM (inactive) | > 100 µM (inactive) | > 100 µM (inactive) | > 100 µM (inactive) | > 100 µM (inactive) | > 100 µM (inactive) | > 100 µM (inactive) | > 100 µM (inactive) | > 100 µM (inactive) | > 100 µM (inactive) | > 100 µM (inactive) |  | > 100 µM (inactive) |  |  |  |  |
| N#Cc1ccccc1NC(=O)/C(=N\Nc1ccc([N+](=O)[O-])cc1)C1C(=O)NC(=O)NC1=O | > 100 µM (inactive) | > 100 µM (inactive) | > 100 |  | > 100 µM (inactive) | > 100 µM (inactive) | 92.3 µM (inactive) | > 100 µM (inactive) | > 100 µM (inactive) | > 100 µM (inactive) | > 100 µM (inactive) | > 100 µM (inactive) |  | > 100 µM (inactive) | > 100 µM (inactive) | > 100 µM (inactive) |  |  |  |  |
| O=C(c1ccc(Cl)cc1)N(C(=S)N1CCN(c2ccccc2)CC1)C1CCCCC1 | > 100 µM (inactive) | 45.7 µM (inactive) | > 100 | > 100 µM (inactive) | 58.2 µM (inactive) | 54.2 µM (inactive) | > 100 µM (inactive) | > 100 µM (inactive) | > 100 µM (inactive) | > 100 µM (inactive) | > 100 µM (inactive) | 63.5 µM (inactive) | > 100 µM (inactive) | > 100 µM (inactive) | 85.3 µM (inactive) | > 100 µM (inactive) |  |  |  |  |
| COc1ccc(NC(=O)C(=O)c2c(O)c3ccc(O)cc3oc2=O)c([N+](=O)[O-])c1 | > 100 µM (inactive) | > 100 µM (inactive) | > 100 | > 100 µM (inactive) | > 100 µM (inactive) | > 100 µM (inactive) | > 100 µM (inactive) | > 100 µM (inactive) | > 100 µM (inactive) | > 100 µM (inactive) |  |  | > 100 µM (inactive) | > 100 µM (inactive) | > 100 µM (inactive) | > 100 µM (inactive) |  |  |  |  |
| O=C(C(=O)n1ncc(Cl)c(Cl)c1=O)n1ncc(Cl)c(Cl)c1=O | 96.8 µM (inactive) | 15.8 µM (inactive) | 17.5 | 18.2 µM (inactive) | 20.3 µM (inactive) | 14.8 µM (inactive) | 10.7 µM (inactive) | 27.1 µM (inactive) | 19.6 µM (inactive) | > 100 µM (inactive) | 23.1 µM (inactive) | 4.18 µM (inactive) | 93.5 µM (inactive) | 28.8 µM (inactive) | 40.8 µM (inactive) | 25.3 µM (inactive) |  |  |  |  |
| C=C(CN(C)C)C(=O)c1ccccc1C | > 100 µM (inactive) | 24.8 µM (inactive) | 24.9 | > 100 µM (inactive) | 15.7 µM (inactive) | 7.52 µM (inactive) | 5.69 µM (inactive) | 33.1 µM (inactive) | > 57.9 µM (inactive) | > 100 µM (inactive) | > 100 µM (inactive) | 15.7 µM (inactive) | > 100 µM (inactive) | > 40.4 µM (inactive) | > 71.6 µM (inactive) | 9.89 µM (inactive) | > 100 µM (inactive) |  |  |  |
| O=C(N/C=C1\C(=O)Oc2ccccc2C1=O)Nc1ccccc1 | 53.1 µM (inactive) | 37.7 µM (inactive) | 40.3 | > 100 µM (inactive) | > 100 µM (inactive) | > 100 µM (inactive) | 58.5 µM (inactive) | 75 µM (inactive) | > 100 µM (inactive) | 61.5 µM (inactive) | 44.1 µM (inactive) | > 100 µM (inactive) | > 100 µM (inactive) | 43.8 µM (inactive) | 12.8 µM (inactive) | 87.1 µM (inactive) |  |  |  |  |
| COc1ccccc1/C=C1\CCC(CCN(C)C)(C2=CCCC2)C1=O (configuration not stated) | 23.9 µM (inactive) | 12.7 µM (inactive) | 19.2 | 15.3 µM (inactive) | 11.1 µM (inactive) | 20.7 µM (inactive) | 14.1 µM (inactive) | 16.9 µM (inactive) | 17.7 µM (inactive) | 19.1 µM (inactive) | 17.5 µM (inactive) | 17.8 µM (inactive) | 17.3 µM (inactive) | 15.1 µM (inactive) | 17.4 µM (inactive) | 17.7 µM (inactive) |  |  |  |  |
| COC(=O)CC(C(C(=O)OC)C(=O)OC)N1C(=O)OCC1c1ccccc1 (configuration not stated) | > 100 µM (inactive) | > 100 µM (inactive) | > 100 | > 100 µM (inactive) | > 100 µM (inactive) | > 100 µM (inactive) | > 100 µM (inactive) | > 100 µM (inactive) | > 100 µM (inactive) | > 100 µM (inactive) | > 100 µM (inactive) | 58.6 µM (inactive) | > 100 µM (inactive) | > 100 µM (inactive) | > 100 µM (inactive) | > 100 µM (inactive) |  |  |  |  |
| Cc1cc2c(cc1C)[n+]([O-])c(C(=O)CC(=O)C(=O)Nc1ccccc1C(C)C)c(C)[n+]2[O-] | > 100 µM (inactive) | > 100 µM (inactive) | > 100 | > 100 µM (inactive) | > 100 µM (inactive) | > 100 µM (inactive) | > 100 µM (inactive) | > 100 µM (inactive) | > 100 µM (inactive) | > 100 µM (inactive) | > 100 µM (inactive) | > 100 µM (inactive) | > 100 µM (inactive) | > 100 µM (inactive) | > 100 µM (inactive) | > 100 µM (inactive) |  |  |  |  |
| O=C1N[C@H]2[C@H](O)[C@H](O)[C@@H](O)[C@H](O)[C@@H]2c2cc3c(c(O)c21)OCO3 [PANCRATISTATIN] | 0.0893 µM (active) | 0.0297 µM (active) | 0.045 | 0.0439 µM (active) | 0.0373 µM (active) | 0.0309 µM (active) | 0.0326 µM (active) | 0.0376 µM (active) | 0.0307 µM (active) | 0.144 µM (active) | 0.0336 µM (active) | 0.0778 µM (active) | 0.0469 µM (active) | 0.037 µM (active) | 0.0301 µM (active) | 0.0414 µM (active) | 0.0306 µM (active) | 0.0372 µM (active) | 0.0622 µM (active) |  |
| CCCCCCCCC/C=C1\CCC(CN2CCOCC2)C1=O (configuration not stated) | 15 µM (inactive) | 1.75 µM (inactive) | 2.47 | 2.88 µM (inactive) | 2.45 µM (inactive) | 1.57 µM (inactive) | 2.64 µM (inactive) | 8.55 µM (inactive) | 3.72 µM (inactive) | 16.9 µM (inactive) | 1.82 µM (inactive) | 0.303 µM (active) | 7.48 µM (inactive) | 1.86 µM (inactive) | 6.17 µM (inactive) | 3.05 µM (inactive) | 4.65 µM (inactive) | 2.36 µM (inactive) |  | 1.79 µM (inactive) |
| CCNc1c(C(=O)N(CC)CC)c(=O)[nH]c2ncccc12 | > 100 µM (inactive) | > 100 µM (inactive) | > 100 | > 100 µM (inactive) | > 100 µM (inactive) | > 100 µM (inactive) | > 100 µM (inactive) | > 100 µM (inactive) | > 100 µM (inactive) | > 100 µM (inactive) | > 100 µM (inactive) | > 100 µM (inactive) | > 100 µM (inactive) | > 100 µM (inactive) | > 100 µM (inactive) | > 100 µM (inactive) |  |  |  |  |
| CC(C)c1ccc(O)c(Cc2cc(C(C)C)cc(Cc3cc(C(C)C)ccc3O)c2O)c1 | 1.9 µM (inactive) | 1.78 µM (inactive) | 1.7 | 2.25 µM (inactive) | 2.23 µM (inactive) | 1.78 µM (inactive) | 1.57 µM (inactive) | 1.65 µM (inactive) | 1.39 µM (inactive) | 1.75 µM (inactive) | 2.09 µM (inactive) | 2.08 µM (inactive) | 1.88 µM (inactive) |  | 2.16 µM (inactive) | 1.73 µM (inactive) |  |  |  |  |
| c1ccc2c3c([nH]c2c1)C1C2CCCCN2C(c2ccncc2)N1CC3 (configuration not stated) | 32.2 µM (inactive) | 35 µM (inactive) | 35.5 | 33.1 µM (inactive) | 32.1 µM (inactive) | 43.3 µM (inactive) | 39.2 µM (inactive) | 44.1 µM (inactive) | 61.5 µM (inactive) | 35.7 µM (inactive) | 38.1 µM (inactive) | 27.4 µM (inactive) | 38.9 µM (inactive) | 58.3 µM (inactive) | 22.8 µM (inactive) | 39.9 µM (inactive) |  |  |  |  |
